The text below walks through data of paper PMC6430017, “Structural and chemical insights into the covalent-allosteric inhibition of the protein kinase Akt” (Chemical Science, 2019).

Common to all, as to test: SelectScreen Z'LYTE kinase profiling
Common to all, as to format: biochemical
What all share (details): ATP at apparent KM

In assay [1] the target is RPS6KA3 (RSK2) (Homo sapiens, UniProt P51812).
The target of assay [2] is T1, PRKD1 (PKC mu) (Homo sapiens, UniProt Q15139).
T1 sequence (Q15139 1-912): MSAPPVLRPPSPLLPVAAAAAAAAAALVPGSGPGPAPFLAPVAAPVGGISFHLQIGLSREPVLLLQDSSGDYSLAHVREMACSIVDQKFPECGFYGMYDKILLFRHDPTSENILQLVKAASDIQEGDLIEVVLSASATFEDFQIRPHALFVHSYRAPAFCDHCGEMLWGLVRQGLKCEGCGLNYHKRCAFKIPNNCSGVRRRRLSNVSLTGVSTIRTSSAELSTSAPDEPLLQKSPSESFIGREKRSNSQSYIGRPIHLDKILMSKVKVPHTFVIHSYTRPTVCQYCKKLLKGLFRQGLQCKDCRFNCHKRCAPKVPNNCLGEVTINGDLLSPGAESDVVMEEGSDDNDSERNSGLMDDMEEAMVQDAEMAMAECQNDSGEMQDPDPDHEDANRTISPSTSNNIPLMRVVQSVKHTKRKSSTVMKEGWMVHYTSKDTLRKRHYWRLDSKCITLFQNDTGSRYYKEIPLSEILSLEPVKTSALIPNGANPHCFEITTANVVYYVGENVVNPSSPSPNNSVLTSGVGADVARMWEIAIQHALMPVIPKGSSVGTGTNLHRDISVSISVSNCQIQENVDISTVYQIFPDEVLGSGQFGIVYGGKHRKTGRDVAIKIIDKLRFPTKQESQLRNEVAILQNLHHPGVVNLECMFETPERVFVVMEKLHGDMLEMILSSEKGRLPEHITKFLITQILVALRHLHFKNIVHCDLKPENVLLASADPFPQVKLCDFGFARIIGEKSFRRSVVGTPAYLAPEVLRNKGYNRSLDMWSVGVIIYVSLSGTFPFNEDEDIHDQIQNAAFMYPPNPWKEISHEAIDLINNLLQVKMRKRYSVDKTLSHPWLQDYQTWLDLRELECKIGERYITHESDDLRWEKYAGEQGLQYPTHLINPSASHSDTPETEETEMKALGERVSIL

The target in assay [3] is RPS6KA4 (MSK2) (Homo sapiens, UniProt O75676).
The target in assay [4] is FRAP1 (mTOR) (Homo sapiens, UniProt P42345).
In assay [5] the target is DNA-PK (Homo sapiens, UniProt P78527).
The target of assay [6] is T2, STK4 (MST1) (Homo sapiens, UniProt Q13043).
T2 sequence (Q13043 1-487): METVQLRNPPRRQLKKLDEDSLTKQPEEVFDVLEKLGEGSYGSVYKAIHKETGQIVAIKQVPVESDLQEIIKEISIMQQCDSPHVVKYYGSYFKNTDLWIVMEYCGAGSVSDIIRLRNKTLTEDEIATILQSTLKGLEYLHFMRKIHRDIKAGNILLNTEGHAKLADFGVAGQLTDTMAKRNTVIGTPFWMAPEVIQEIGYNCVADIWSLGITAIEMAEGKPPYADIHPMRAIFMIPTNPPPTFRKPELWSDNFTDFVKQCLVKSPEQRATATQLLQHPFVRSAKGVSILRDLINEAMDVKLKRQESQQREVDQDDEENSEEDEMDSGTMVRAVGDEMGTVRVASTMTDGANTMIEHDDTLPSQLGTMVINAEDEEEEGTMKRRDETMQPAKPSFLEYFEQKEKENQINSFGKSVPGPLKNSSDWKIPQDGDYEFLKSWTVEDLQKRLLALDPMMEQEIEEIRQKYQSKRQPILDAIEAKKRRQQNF

Assay [7] concerns the target IGF1R (Homo sapiens, UniProt P08069).
Assay [8] concerns the target PLK1 (Homo sapiens, UniProt P53350).
Assay [9] has as its target CDC42 BPB (MRCKB) (Homo sapiens, UniProt Q9Y5S2).
Assay [10] concerns the target TEK (Tie2) (Homo sapiens, UniProt Q02763).
In assay [11] the target is MARK1 (MARK) (Homo sapiens, UniProt Q9P0L2).
The target of assay [12] is T3, PRKCZ (PKC zeta) (Homo sapiens, UniProt Q05513).
T3 sequence (Q05513 1-592): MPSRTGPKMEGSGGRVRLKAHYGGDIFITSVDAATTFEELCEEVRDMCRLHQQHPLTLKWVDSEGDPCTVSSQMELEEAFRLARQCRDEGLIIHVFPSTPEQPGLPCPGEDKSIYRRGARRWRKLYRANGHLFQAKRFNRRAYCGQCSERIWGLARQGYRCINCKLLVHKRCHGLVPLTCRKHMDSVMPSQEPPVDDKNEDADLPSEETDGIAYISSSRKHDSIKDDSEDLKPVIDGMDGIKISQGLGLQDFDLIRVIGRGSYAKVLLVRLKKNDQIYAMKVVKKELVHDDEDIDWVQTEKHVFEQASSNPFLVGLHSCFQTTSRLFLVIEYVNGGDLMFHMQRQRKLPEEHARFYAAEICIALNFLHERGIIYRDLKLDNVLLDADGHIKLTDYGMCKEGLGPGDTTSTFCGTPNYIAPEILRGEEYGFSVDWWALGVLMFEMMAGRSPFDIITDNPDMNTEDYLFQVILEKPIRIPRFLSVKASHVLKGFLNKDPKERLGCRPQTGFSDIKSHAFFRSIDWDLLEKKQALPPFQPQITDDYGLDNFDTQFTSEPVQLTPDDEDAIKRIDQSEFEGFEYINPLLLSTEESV

The target in assay [13] is EGFR (ErbB1) (Homo sapiens, UniProt P00533).
Sequence of EGFR (ErbB1) (P00533 25-1210): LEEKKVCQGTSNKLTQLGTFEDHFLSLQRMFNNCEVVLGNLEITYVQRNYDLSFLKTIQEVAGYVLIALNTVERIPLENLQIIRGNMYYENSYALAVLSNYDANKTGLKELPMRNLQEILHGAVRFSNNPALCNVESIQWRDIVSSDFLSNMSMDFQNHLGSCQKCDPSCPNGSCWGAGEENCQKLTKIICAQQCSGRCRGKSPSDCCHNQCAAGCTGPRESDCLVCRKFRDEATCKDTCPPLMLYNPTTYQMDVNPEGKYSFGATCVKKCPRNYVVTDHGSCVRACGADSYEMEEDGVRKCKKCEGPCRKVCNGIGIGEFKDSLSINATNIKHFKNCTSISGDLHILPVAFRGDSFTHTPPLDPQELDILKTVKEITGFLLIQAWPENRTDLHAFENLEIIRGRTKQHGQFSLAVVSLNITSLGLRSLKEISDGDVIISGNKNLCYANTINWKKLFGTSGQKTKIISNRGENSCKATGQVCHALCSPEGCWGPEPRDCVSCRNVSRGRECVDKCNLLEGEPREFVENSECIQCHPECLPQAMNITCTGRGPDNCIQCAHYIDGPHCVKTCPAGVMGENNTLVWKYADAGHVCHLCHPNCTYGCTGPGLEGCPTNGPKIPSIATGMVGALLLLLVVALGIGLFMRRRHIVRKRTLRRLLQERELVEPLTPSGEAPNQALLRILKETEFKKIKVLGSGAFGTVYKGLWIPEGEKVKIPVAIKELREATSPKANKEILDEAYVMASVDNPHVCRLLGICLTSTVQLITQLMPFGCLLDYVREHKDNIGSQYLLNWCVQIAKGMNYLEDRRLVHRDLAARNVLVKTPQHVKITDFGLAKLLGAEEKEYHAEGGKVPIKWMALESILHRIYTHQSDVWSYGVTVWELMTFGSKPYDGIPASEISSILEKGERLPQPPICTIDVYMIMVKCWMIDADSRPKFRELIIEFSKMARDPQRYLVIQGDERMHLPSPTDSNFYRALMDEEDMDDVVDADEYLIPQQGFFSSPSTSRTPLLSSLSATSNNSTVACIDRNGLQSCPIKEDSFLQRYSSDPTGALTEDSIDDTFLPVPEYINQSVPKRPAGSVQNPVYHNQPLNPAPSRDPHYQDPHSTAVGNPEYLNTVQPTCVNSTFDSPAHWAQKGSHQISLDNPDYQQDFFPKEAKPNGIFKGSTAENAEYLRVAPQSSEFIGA

Sequence of RPS6KA4 (MSK2) (O75676 whole entry): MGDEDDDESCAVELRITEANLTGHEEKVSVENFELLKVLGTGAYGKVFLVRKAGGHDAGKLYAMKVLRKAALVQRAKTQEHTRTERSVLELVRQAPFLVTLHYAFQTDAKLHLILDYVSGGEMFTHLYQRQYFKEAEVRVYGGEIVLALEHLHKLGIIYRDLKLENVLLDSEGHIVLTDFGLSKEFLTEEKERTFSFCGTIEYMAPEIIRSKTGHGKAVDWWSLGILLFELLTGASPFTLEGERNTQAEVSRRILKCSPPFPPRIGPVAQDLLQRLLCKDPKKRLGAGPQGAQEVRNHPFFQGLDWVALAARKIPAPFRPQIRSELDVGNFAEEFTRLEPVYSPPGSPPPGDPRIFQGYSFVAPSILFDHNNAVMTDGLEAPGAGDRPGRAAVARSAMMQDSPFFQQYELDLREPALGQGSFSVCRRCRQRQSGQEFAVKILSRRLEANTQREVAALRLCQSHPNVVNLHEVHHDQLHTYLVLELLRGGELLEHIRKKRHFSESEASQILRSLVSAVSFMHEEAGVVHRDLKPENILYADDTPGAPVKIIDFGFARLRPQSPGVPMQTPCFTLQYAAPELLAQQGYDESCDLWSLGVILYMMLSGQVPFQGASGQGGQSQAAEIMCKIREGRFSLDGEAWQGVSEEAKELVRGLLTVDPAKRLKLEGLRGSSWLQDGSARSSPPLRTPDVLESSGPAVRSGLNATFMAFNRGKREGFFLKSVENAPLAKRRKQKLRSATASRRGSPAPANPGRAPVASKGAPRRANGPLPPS
Sequence of PLK1 (P53350 whole entry): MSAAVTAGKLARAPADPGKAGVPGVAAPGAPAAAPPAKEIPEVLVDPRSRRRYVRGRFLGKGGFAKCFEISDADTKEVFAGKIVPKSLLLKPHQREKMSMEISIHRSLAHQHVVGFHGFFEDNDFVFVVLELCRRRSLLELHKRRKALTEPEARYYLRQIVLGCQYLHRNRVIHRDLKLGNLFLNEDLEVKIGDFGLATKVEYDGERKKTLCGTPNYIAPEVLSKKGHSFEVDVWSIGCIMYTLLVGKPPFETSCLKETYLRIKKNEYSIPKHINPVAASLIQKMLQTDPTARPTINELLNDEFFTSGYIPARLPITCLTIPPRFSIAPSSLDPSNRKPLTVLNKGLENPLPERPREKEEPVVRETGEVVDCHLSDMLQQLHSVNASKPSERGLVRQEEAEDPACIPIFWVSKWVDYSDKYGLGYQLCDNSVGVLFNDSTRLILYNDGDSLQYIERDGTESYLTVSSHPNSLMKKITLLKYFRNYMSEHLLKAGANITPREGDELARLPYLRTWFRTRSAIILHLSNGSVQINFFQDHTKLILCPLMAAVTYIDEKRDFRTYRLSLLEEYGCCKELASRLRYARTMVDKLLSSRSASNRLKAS
Sequence of RPS6KA3 (RSK2) (P51812 whole entry): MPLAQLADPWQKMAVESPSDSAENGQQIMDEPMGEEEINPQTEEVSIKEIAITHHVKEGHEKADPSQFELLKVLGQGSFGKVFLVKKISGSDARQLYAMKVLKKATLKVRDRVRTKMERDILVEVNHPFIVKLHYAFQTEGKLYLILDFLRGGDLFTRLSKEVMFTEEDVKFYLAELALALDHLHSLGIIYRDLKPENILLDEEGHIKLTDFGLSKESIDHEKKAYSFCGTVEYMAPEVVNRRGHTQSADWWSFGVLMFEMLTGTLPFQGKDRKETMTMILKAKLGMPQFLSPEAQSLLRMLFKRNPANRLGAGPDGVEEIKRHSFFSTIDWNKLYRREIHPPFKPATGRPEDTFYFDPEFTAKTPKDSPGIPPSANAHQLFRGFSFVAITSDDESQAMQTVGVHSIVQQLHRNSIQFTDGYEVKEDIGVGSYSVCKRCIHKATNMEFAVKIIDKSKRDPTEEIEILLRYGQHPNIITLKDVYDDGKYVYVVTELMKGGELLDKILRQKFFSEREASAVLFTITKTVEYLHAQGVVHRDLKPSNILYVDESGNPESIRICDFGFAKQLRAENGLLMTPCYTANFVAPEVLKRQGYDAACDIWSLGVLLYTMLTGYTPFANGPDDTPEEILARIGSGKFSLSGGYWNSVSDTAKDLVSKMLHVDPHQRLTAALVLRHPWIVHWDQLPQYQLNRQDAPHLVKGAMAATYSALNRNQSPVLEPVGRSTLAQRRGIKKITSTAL
Sequence of MARK1 (MARK) (Q9P0L2 whole entry): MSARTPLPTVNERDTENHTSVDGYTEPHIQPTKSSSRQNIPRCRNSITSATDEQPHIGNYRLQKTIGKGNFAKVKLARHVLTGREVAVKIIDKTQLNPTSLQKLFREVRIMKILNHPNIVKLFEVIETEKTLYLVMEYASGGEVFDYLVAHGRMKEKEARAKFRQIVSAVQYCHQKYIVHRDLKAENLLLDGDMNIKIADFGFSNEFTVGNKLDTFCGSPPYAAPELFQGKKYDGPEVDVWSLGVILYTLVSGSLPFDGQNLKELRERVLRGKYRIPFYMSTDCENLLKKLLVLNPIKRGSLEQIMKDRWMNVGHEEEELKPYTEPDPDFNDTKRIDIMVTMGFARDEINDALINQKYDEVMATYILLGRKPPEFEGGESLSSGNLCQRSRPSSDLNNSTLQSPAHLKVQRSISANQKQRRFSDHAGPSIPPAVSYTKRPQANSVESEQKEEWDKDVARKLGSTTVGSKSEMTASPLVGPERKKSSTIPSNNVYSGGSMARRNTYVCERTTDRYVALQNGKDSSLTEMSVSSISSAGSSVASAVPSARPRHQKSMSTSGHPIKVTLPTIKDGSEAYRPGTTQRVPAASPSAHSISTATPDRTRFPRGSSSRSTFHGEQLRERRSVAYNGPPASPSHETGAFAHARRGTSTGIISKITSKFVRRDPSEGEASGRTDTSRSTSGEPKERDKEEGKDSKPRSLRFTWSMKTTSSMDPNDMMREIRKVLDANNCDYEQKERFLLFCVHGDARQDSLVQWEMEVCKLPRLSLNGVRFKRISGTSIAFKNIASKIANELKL

Broadly, the inhibition is the change of the read-out against control, counted positive when it falls. With `C=CC(=O)Nc1ccc2c(c1)n(C1CCN(Cc3ccc(-c4nc5cc[nH]c(=O)c5cc4-c4ccccc4)cc3)CC1)c(=O)n2C` [24b], the inhibition at 1 µM was 14% in assay [1]; 13% in assay [2]; 9% in assay [3]; 8% in assay [4]; 7% in [5]; 6% in [6]. In addition, the inhibition at 1 µM in assay [7] was 6%; in [8], 5%; in assay [9], 3%; in assay [10], 2%; in [11] it was 2%; in assay [12], -3%. The inhibition at 1 µM in [13] was -8%.

In the case of `C=CC(=O)Nc1cccc(C(=O)NC2CCN(Cc3ccc(-c4nc5cc[nH]c(=O)c5cc4-c4ccccc4)cc3)CC2)c1` [30b], the inhibition at 1 µM in [1] turned out to be 30%; in assay [2], 6%; in assay [3], 11%; in assay [4], 1%; in assay [5] it was 8%; in assay [6] it was 7%. Besides, the inhibition at 1 µM in [7] was 1%; in [8] it was 6%; in assay [9], -27%; in assay [10], 6%; in [11] it was 5%; in [12] it was -4%. Also, in assay [13], the inhibition at 1 µM stood at 1%.

For the molecule `C=CC(=O)Nc1cc(NC(=O)NC2CCN(Cc3ccc(-c4nc5cc[nH]c(=O)c5cc4-c4ccccc4)cc3)CC2)ccc1Cl` [compound 27], the inhibition at 1 µM in assay [1] is 23%; in [2], 17%; in assay [3], 16%; in assay [4] it was -2%; in assay [5], 5%; in assay [6] it was 14%. Also, the inhibition at 1 µM is 7% in assay [7]; 1% in assay [8]; 12% in assay [9]; 5% in [10]; 7% in [11]; -14% in [12]. Moreover, the inhibition at 1 µM in assay [13] is 2%.
